From BindingDB's records for doi:10.1016/j.bmc.2011.01.024 (University of Rome Tor Vergata, 2011)

Assay: Inhibition of HIV1 3B reverse transcriptase activity infected in human H9 cells assessed as level of p24 antigen

In the case of `CC1(C)O[C@H]2CC(=O)OC[C@]23[C@H]2CC[C@@]4(C)[C@H](c5ccoc5)OC(=O)[C@H]5O[C@]54[C@]2(C)C(=O)C[C@@H]13` [Limonin], the IC50 is reported as 4.48 nM.
